{
  "source": "patent US20240158516A1",
  "about": "“METHODS FOR THE TREATMENT OF THYROID EYE DISEASE” (Horizon Therapeutics Ireland DAC, priority 2021, published 2024)",
  "origin": "cited, not measured here",
  "molecules": {"B1": {"name": "Figitumumab: IGF-1R inhibitor antibody; HC SEQ ID NO:39, LC SEQ ID NO:40 (antibody)", "heavy": "EVQLLESGGGLVQPGGSLRLSCTASGFTFSSYAMNWVRQAPGKGLEWVSAISGSGGTTFYADSVKGRFTISRDNSRTTLYLQMNSLRAEDTAVYYCAKDLGWSDSYYYYYGMDVWGQGTTVTVSSASTKGPSVFPLAPCSRSTSESTAALGCLVKDYFPEPVTVSWNSGALTSGVHTFPAVLQSSGLYSLSSVVTVPSSNFGTQTYTCNVDHKPSNTKVDKTVERKCCVECPPCPAPPVAGPSVFLFPPKPKDTLMISRTPEVTCVVVDVSHEDPEVQFNWYVDGVEVHNAKTKPREEQFNSTFRVVSVLTVVHQDWLNGKEYKCKVSNKGLPAPIEKTISKTKGQPREPQVYTLPPSREEMTKNQVSLTCLVKGFYPSDIAVEWESNGQPENNYKTTPPMLDSDGSFFLYSKLTVDKSRWQQGNVFSCSVMHEALHNHYTQKSLSLSPGK", "light": "DIQMTQFPSSLSASVGDRVTITCRASQGIRNDLGWYQQKPGKAPKRLIYAASRLHRGVPSRFSGSGSGTEFTLTISSLQPEDFATYYCLQHNSYPCSFGQGTKLEIKRTVAAPSVFIFPPSDEQLKSGTASVVCLLNNFYPREAKVQWKVDNALQSGNSQESVTEQDSKDSTYSLSSTLTLSKADYEKHKVYACEVTHQGLSSPVTKSFNRGEC", "modifications": "Figitumumab Heavy Chain (HC); Figitumumab Light Chain (LC)"}},
  "key": {"[1]": {"system": "tumor", "settings": "in vivo; cited from earlier work"}, "[2]": {"settings": "cited from earlier work"}, "[3]": {"biological_target": "T1, IGF-IR (Homo sapiens, UniProt P08069)", "T1 sequence (P08069 31-1367)": "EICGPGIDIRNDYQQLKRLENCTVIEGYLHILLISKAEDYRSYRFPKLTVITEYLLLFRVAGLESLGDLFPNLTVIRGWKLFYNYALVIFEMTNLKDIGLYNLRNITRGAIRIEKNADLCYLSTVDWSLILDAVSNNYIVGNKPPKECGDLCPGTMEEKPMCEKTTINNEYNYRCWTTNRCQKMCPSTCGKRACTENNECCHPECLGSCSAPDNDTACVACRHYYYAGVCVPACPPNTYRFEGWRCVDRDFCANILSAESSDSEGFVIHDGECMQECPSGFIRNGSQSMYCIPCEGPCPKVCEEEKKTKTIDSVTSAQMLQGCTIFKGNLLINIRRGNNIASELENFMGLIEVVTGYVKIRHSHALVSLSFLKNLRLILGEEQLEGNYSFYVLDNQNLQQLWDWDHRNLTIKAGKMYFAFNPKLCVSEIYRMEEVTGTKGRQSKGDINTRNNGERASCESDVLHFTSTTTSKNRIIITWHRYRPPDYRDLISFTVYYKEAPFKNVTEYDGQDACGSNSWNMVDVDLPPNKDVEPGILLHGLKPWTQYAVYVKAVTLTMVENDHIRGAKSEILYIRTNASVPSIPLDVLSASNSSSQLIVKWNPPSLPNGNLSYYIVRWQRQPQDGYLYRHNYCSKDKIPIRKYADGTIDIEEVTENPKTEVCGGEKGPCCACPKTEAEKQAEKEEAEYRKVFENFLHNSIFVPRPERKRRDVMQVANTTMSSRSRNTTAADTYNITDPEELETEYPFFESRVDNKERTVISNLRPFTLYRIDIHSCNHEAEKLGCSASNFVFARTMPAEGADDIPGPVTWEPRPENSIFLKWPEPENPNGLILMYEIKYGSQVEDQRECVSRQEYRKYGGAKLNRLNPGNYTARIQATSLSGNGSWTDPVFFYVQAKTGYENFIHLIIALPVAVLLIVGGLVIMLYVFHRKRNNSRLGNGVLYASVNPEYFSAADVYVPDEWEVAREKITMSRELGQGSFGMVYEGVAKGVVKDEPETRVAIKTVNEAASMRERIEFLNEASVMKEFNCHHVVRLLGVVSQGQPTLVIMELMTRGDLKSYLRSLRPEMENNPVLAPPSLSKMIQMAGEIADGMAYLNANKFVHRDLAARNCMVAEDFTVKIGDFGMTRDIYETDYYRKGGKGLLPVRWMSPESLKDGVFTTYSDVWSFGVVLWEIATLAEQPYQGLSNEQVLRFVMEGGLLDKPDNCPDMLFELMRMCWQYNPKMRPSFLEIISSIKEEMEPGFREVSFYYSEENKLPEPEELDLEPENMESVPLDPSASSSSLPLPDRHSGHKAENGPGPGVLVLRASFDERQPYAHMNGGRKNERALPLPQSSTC", "settings": "cited from earlier work"}, "[4]": {"biological_target": "T1, IGF-IR", "settings": "cited from earlier work", "remark": "listed apart in the source"}, "[5]": {"system": "patients with GO (TED)", "settings": "vs. 0.15 mm in the placebo group; cited from earlier work"}, "[6]": {"settings": "cited from earlier work", "remark": "listed apart in the source"}, "[7]": {"biological_target": "IGF-1 R (Homo sapiens, UniProt P08069)", "sequence (P08069 31-1367)": "as above", "settings": "cited from earlier work"}, "[8]": {"system": "patients with moderate-to-severe active TED", "settings": "cited from earlier work"}},
  "note": "Where two headings read alike, the source gives them in different places.",
  "data": [
    {"molecule": "N#CCc1cnc(-c2ccc3ccccc3n2)n1-c1ccnc(NC2CCCNC2)n1", "note": "(stereo not shown) [BI893923]", "values": [
      {"measurement": "anti-tumor efficacy", "setting": "[1]", "result": "anti-tumor efficacy"},
      {"measurement": "tolerability", "setting": "[1]", "result": "good"}
    ]},
    {"molecule": "COCCN1CCN(CCn2ccc(Nc3ncc4c(n3)[C@@H](C)Cc3nn(C)c(-c5ccccc5)c3-4)n2)CC1", "note": "[BI885578]", "values": [
      {"measurement": "in vivo half-life", "setting": "[2]; as a result of rapid metabolic clearance", "result": "short"},
      {"measurement": "intestinal absorption", "setting": "[2]; in vivo", "result": "rapid"},
      {"measurement": "metabolic clearance", "setting": "[2]; in vivo", "result": "rapid"}
    ]},
    {"molecule": "Nc1ncnc2c1c(-c1ccc3[nH]c(Cc4ccccc4Cl)nc3c1)nn2[C@H]1CC[C@H](N2CCOCC2)CC1", "note": "[Example A-928605]", "values": [
      {"measurement": "inhibition of IGF-IR on the purified enzyme", "setting": "[3]", "result": "potent inhibitor"},
      {"measurement": "inhibition of intracellular IGF-IR phosphorylation", "setting": "[4]", "result": "potent inhibitor"}
    ]},
    {"molecule": "teprotumumab: fully human IGF-IR-inhibitory monoclonal antibody approved for TED; VH SEQ ID NO:90, VL SEQ ID NO:91", "values": [
      {"measurement": "exophthalmos decreased by an average of", "setting": "[5]", "result": 2.46, "unit": "mm"},
      {"measurement": "T1/2", "setting": "[6]; IV", "result": "IV; 8 days"}
    ]},
    {"molecule": "Dalotuzumab: IGF-1R inhibitor antibody; HC SEQ ID NO:7, LC SEQ ID NO:8", "values": [
      {"measurement": "T1/2", "setting": "[6]; in vivo, iv", "result": "IV;5 days"}
    ]},
    {"molecule": "Cixutumumab: IGF-1R inhibitor antibody; HC SEQ ID NO:55, LC SEQ ID NO:56", "values": [
      {"measurement": "T1/2", "setting": "[6]; IV", "result": "IV; 5 days"}
    ]},
    {"molecule": "CN1CCC(Nc2cc(Cl)cc3c(S(=O)(=O)N4CCO[C@H](COc5ccccc5)C4)c(C(N)=O)[nH]c23)CC1", "note": "[PL-225B]", "values": [
      {"measurement": "inhibition of IGF-1 R", "setting": "[7]", "result": "selectively inhibits IGF-1 R"},
      {"measurement": "T1/2", "setting": "[6]; oral", "result": "Oral; 21d"}
    ]},
    {"molecule": "COc1cc(N2CCC(N)CC2)ccc1Nc1ncc(Cl)c(-c2c[nH]c3ccccc23)n1", "note": "[AZD3463]", "values": [
      {"measurement": "inhibition of IGF-1 R", "setting": "[7]", "result": "potent ALK/IGF-1 R inhibitor"}
    ]},
    {"molecule": "rituximab: a CD20+ B cell-depleting agent", "values": [
      {"measurement": "reduction in proptosis compared with the ivGC results", "setting": "[8]; compared with 0.6 mm mean reduction under ivGCs", "result": "not different"},
      {"measurement": "effects of rituximab versus placebo", "setting": "[8]; first trial, 2015 monocenter RCT", "result": "negative"},
      {"measurement": "effects of rituximab versus ivGCs", "setting": "[8]; second trial, 2015 monocenter RCT", "result": "positive"}
    ]},
    {"molecule": "C[C@]1(O)C[C@@H](c2nc(-c3ccc4ccc(-c5ccccc5)nc4c3)c3c(N)nccn32)C1", "note": "[Linsitinib]", "values": [
      {"measurement": "T1/2", "setting": "[6]; oral", "result": "oral; 2-4 hrs"}
    ]},
    {"molecule": "B1", "values": [
      {"measurement": "T1/2", "setting": "[6]; IV", "result": "IV; 20 days"}
    ]}
  ]
}
